Laboratory results reported in patent publication US10011591B2, “Crystalline form of afatinib dimaleate” (Sun Pharmaceutical Industries Limited, priority 2014, dated 2018).

Assay: Storage stability towards polymorphic conversion, triple layer package
Type: physicochemical
Conditions: 25° C. ±2° C. and 60% ±5% relative humidity for two months under triple layer package
Text: The term “triple layer package,” as used herein, refers to the afatinib dimaleate being packed in a low density polyethylene (LDPE) pouch, then inserted and heat sealed under vacuum in a bag with a mixture of polyester/LDPE with silica sachet as a desiccant, and then further inserted and heat sealed under vacuum into an outer bag with a mixture of polyester film/aluminum foil/polyester LDPE.

**Q.** Which “polymorphic form stability on storage (conversion to any other form)” value does the source give for `CN(C)C/C=C/C(=O)Nc1cc2c(Nc3ccc(F)c(Cl)c3)ncnc2cc1O[C@H]1CCOC1.O=C(O)/C=C\C(=O)O.O=C(O)/C=C\C(=O)O` [crystalline Form I of afatinib dimaleate, 2-butenamide, N-[4-[(3-chloro-4-fluorophenyl)amino]-7-[[(3S)-tetrahydro-3-furanyl]oxy]-6-quinazolinyl]-4-(dimethylamino)-,(2E)-, (2Z)-2-butenedioate (1:2)] here?
**A.** Its value is “not converted to any other form of afatinib dimaleate”.
